# Data as given in PubChem BioAssay (NCI).
#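 All cell lines were grown in 96-well plates and treated with compound for 48 hours. At the GI50, growth is halved. TGI is the concentration that stops growth completely.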
# Test system: NCI-H23 lung
# Experiment: growth of human tumour cells (NCI), 48 h
Compound,GI50,TGI
CCN1C(=O)N(CC)C2C1NN=c1s/c(=C3\C(=O)N(CCc4ccccc4)c4ccccc43)c(=O)n12 (stereo not drawn),0.794 µM,14.3 µM
CN(C)c1ccc(N=Nc2ccncc2)cc1,–,> 100 µM
CC1(C)N=C(N)N=C(N)N1c1ccc(CCCCc2ccc(S(=O)(=O)F)cc2)c(Cl)c1,0.363 µM,19.5 µM
N#CN1CC[C@H](C(=O)Nc2ncc(-c3ccncc3)s2)C1,0.0269 µM,3.44 µM
Cn1cc(-c2nonc2-c2cn(C)c3ccccc23)c2ccccc21,1.98 µM,> 100 µM
COC(=O)c1nc(-c2ccccc2)oc1S(=O)(=O)n1nc(C)cc1N,16.7 µM,35.9 µM
CCCCCn1sc(=O)n(Cc2ccc(CNC(=O)OCc3ccc4cccc(O)c4n3)cc2)c1=O,1.67 µM,3.59 µM
Cn1cncc1CC1COC(=O)C1C(O)c1ccccc1 (stereo not drawn),–,> 100 µM
CCCCn1c(=O)c2c(nc3n2CCCN3CCc2ccc(OCC(=O)NCCN(CC)CC)cc2)n(CCCC)c1=O,6.51 µM,15.6 µM

# Test system: SF-295 CNS
# Experiment: growth of human tumour cells (NCI), 48 h
Compound,GI50,TGI
COc1cc(/C=C/[N+](=O)[O-])cc(Br)c1OC,2.64 µM,9.88 µM
CN(CC(N)=O)C(=O)N(CCCl)N=O,–,> 100 µM
CC(C)=CCC/C(C)=C/CC/C(C)=C/CC/C=C(\C)CC/C=C(\C)CCC(=O)Nc1ccn(C2OC(CO)C(O)C2(F)F)c(=O)n1 (stereo not drawn),0.0329 µM,0.154 µM
COc1ccc(-c2cc(=O)c3c(OC)c(OC)c(OC)c(OC)c3o2)cc1,–,> 100 µM
CC(C)(C)CN1CCn2c(nc3c(N)nccc32)S1,12 µM,> 100 µM
COc1ccc2c(c1)OC1=C(C(=O)OC1)C2c1cc(OC)c2c(c1)OCO2 (stereo not drawn),0.0283 µM,> 100 µM
CC1(C)CCC[C@]2(C)[C@@H](C=O)C(C=O)=CC[C@@H]12,–,75.1 µM
O=c1[nH]cnc2c(C3NC(CO)C(O)C3O)c[nH]c12 (stereo not drawn),> 100 µM,> 100 µM
CCn1c2ccccc2c2cc(/C=C(/C#N)C(N)=O)ccc21,3.42 µM,30 µM
CCN1C(=O)N(CC)C2C1NN=c1s/c(=C3\C(=O)N(CCc4ccccc4)c4ccccc43)c(=O)n12 (stereo not drawn),0.363 µM,7.75 µM
CN(C)c1ccc(N=Nc2ccncc2)cc1,–,> 100 µM
CC1(C)N=C(N)N=C(N)N1c1ccc(CCCCc2ccc(S(=O)(=O)F)cc2)c(Cl)c1,0.636 µM,18.2 µM
N#CN1CC[C@H](C(=O)Nc2ncc(-c3ccncc3)s2)C1,0.226 µM,> 38.9 µM
Cn1cc(-c2nonc2-c2cn(C)c3ccccc23)c2ccccc21,0.42 µM,> 100 µM
COC(=O)c1nc(-c2ccccc2)oc1S(=O)(=O)n1nc(C)cc1N,29.7 µM,> 100 µM
CCCCCn1sc(=O)n(Cc2ccc(CNC(=O)OCc3ccc4cccc(O)c4n3)cc2)c1=O,6.73 µM,20.1 µM
Cn1cncc1CC1COC(=O)C1C(O)c1ccccc1 (stereo not drawn),–,> 100 µM
CCCCn1c(=O)c2c(nc3n2CCCN3CCc2ccc(OCC(=O)NCCN(CC)CC)cc2)n(CCCC)c1=O,0.877 µM,1.95 µM

# Test system: SK-MEL-28 melanoma
# Experiment: growth of human tumour cells (NCI), 48 h
Compound,GI50,TGI
COc1cc(/C=C/[N+](=O)[O-])cc(Br)c1OC,2.39 µM,6.14 µM
CN(CC(N)=O)C(=O)N(CCCl)N=O,–,> 100 µM
CC(C)=CCC/C(C)=C/CC/C(C)=C/CC/C=C(\C)CC/C=C(\C)CCC(=O)Nc1ccn(C2OC(CO)C(O)C2(F)F)c(=O)n1 (stereo not drawn),2.64 µM,21.9 µM
COc1ccc(-c2cc(=O)c3c(OC)c(OC)c(OC)c(OC)c3o2)cc1,–,> 100 µM
CC(C)(C)CN1CCn2c(nc3c(N)nccc32)S1,13.5 µM,29.7 µM
COc1ccc2c(c1)OC1=C(C(=O)OC1)C2c1cc(OC)c2c(c1)OCO2 (stereo not drawn),0.0342 µM,> 100 µM
CC1(C)CCC[C@]2(C)[C@@H](C=O)C(C=O)=CC[C@@H]12,–,> 100 µM
O=c1[nH]cnc2c(C3NC(CO)C(O)C3O)c[nH]c12 (stereo not drawn),> 100 µM,> 100 µM
CCn1c2ccccc2c2cc(/C=C(/C#N)C(N)=O)ccc21,40.1 µM,> 100 µM
CCN1C(=O)N(CC)C2C1NN=c1s/c(=C3\C(=O)N(CCc4ccccc4)c4ccccc43)c(=O)n12 (stereo not drawn),1.2 µM,> 28.4 µM
CN(C)c1ccc(N=Nc2ccncc2)cc1,–,> 100 µM
CC1(C)N=C(N)N=C(N)N1c1ccc(CCCCc2ccc(S(=O)(=O)F)cc2)c(Cl)c1,0.85 µM,20.8 µM
N#CN1CC[C@H](C(=O)Nc2ncc(-c3ccncc3)s2)C1,0.0814 µM,9.19 µM
Cn1cc(-c2nonc2-c2cn(C)c3ccccc23)c2ccccc21,4.68 µM,> 100 µM
COC(=O)c1nc(-c2ccccc2)oc1S(=O)(=O)n1nc(C)cc1N,14.7 µM,29.9 µM
CCCCCn1sc(=O)n(Cc2ccc(CNC(=O)OCc3ccc4cccc(O)c4n3)cc2)c1=O,1.6 µM,2.94 µM
Cn1cncc1CC1COC(=O)C1C(O)c1ccccc1 (stereo not drawn),–,> 100 µM
CCCCn1c(=O)c2c(nc3n2CCCN3CCc2ccc(OCC(=O)NCCN(CC)CC)cc2)n(CCCC)c1=O,0.98 µM,2.04 µM
